Test results published in the Kinase Knowledgebase extract (Sharma et al. 2016).

Experiments:
CDK2 (Human) [1] = target: CDK2 (Human) (UniProt P24941); assay: Enzyme Assay
CDK2 (Human) [2] = target: CDK2 (Human) (UniProt P24941); assay: Enzyme Assay; remark: listed apart in the source

Row | IC50 (CDK2 (Human) [1]) | IC50 (CDK2 (Human) [2]) | SMILES
1 | 930 nM |  | O=C1Nc2ccccc2C1=C1Nc2ccccc2C1=NOCCC(O)CO (stereo not drawn)
2 | 278 nM | 168 nM | Cc1ccc([N+](=O)[O-])cc1S(=O)(=O)N(C)/N=C/c1cnc2ccc(Br)cn12
3 | 379 nM | 1520 nM | O=C1Nc2ccc(I)cc2/C1=C1/Nc2ccccc2/C1=N\O
4 | 787 nM | 78300 nM | CC(=O)O/N=C1/C(=C2/C(=O)Nc3cc(Br)ccc32)Nc2ccccc21
5 | 1280 nM |  | NC1=NC(=O)/C(=C2\CCNC(=O)c3[nH]c4ccccc4c32)N1
6 | 318 nM | 147 nM | Cn1cc(C2=C(c3cn(CCCSC(=N)N)c4ccccc34)C(=O)NC2=O)c2ccccc21
7 | 506 nM | 1210 nM | CC(C)n1cnc2c(NCc3ccccc3O)nc(NCCCO)nc21
8 | > 25000 nM | > 25000 nM | COc1cc(Nc2ncc3ccn(-c4cccc(CCC#N)c4)c3n2)cc(OC)c1OC
9 | 24500 nM | 3910 nM | CCCCCCCCCCCCCCCCn1cc[n+](Cc2ccccc2)c1C
10 | 333 nM | 216 nM | N#CCCc1ccc2c(c1)-c1[nH]c3ccc([N+](=O)[O-])cc3c1CC(=O)N2
11 | 141 nM | 67 nM | CC(C)c1[nH]n(-c2c(Cl)cccc2Cl)c2nc(Cc3ccc(OCCO)cc3)nc(=O)c1-2
12 | 4490 nM | 6470 nM | CCN(CC)C(=O)c1ccc(Nc2nc(OCC3CCCCC3)c3[nH]cnc3n2)cc1

Row | SMILES | IC50 (CDK2 (Human) [1]) | IC50 (CDK2 (Human) [2])
13 | O=C1NC(=O)c2c1c1c3ccccc3n3c1c1c2c2ccccc2n1C1CCC3O1 | 871 nM | 283 nM
14 | O=C1Nc2ccc3ncsc3c2/C1=C/c1cnc[nH]1 | 135 nM | 94 nM
15 | CC(C)[C@H](CO)Nc1nc(Nc2cccc(Cl)c2)c2ncn(C(C)C)c2n1 | 204 nM | 503 nM
